Ki, melting point and Kd data for 9 compounds are collected here from patent publication US7071185B2, “1,2,3,4,7,8-hexahydro-6H-[1,4]diazepino[6,7,1-ij]quinoline derivatives as antipsychotic and antiobesity agents” (Wyeth, priority 2002, dated 2006).

Where a name gives a salt, the structure may show the parent alone. Read-outs that look alike come from different tables or passages of the source.

Series [1] concerns the target T1, human 5-hydroxytryptamine2C (h5HT2C) receptor (Homo sapiens, UniProt P28335).
T1 construct: expressed in transfected cells; host or cells: CHO (Chinese Hamster Ovary) cells; membrane preparation
T1 sequence (P28335 33-458): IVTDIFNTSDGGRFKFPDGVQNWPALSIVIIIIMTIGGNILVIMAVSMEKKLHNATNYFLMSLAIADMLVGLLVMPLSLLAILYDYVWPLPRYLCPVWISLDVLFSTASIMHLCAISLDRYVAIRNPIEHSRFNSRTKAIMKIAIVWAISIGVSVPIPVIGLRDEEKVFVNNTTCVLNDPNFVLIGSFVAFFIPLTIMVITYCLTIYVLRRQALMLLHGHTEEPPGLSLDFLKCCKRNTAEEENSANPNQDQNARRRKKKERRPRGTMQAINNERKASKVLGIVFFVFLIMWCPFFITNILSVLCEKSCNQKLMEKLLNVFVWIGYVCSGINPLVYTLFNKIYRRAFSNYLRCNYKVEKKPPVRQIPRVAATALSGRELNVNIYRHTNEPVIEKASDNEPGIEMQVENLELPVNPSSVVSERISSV
In words: 5HT2C receptor binding ([125I]DOI displacement, CHO cell membranes).

For `CSc1ccc2c(c1)C(N1CCN(C)CC1)Cc1ccccc1S2` (stereo not shown) [Methiothepin, reference compound], in series [1] ([125I]DOI binding, CHO membranes expressing h5HT2C, read-out: Ki (95% confidence interval), reference compounds), the Ki was determined as 4.6 nM.
Turning to `c1cc2c3c(c1)CC1CCCC1N3CCNC2` (stereo not drawn) [Example 1, trans isomer, Trans-1,2,3,4,8,8a,9,10,11,11a-decahydro-cyclopenta[b][1,4]diazapino[6,7,1-ij]quinoline], the Ki in series [1] is 71 nM.
Turning to `c1cc2c3c(c1)CC1CCCCC1N3CCNC2` (stereo not drawn) [Example 2, trans isomer, (Trans)-1,2,3,4,8a,9,10,11,12,12a,-decahydro-8H-[1,4]diazepino[6,7,1-de]acridine], the melting point came out at 95 °C. Further, the Ki in series [1] turned out to be 513 nM.
`COc1cc(CC(C)N)c(OC)cc1I` (stereo not shown) [[^125I] DOI, reference compound]: the dissociation constant Kd in series [1] (read-out: dissociation constant, KD of [125I] DOI at the human serotonin 5HT2C receptor, saturation binding with increasing concentrations of [125I] DOI) was 0.4 nM.
As for `c1cc2c3c(c1)C[C@@H]1CCC[C@@H]1N3CCNC2` (relative stereo) (as salt: HCl) [Example 1, cis isomer, Cis 1,2,3,4,8,8a,9,10,11,11a-decahydro-cyclopenta[b][1,4]diazepino[6,7,1-ij]quinoline], the melting point is 180 to 190 °C (dec.).
Still for that read-out and setting: next, `c1cc2c3c(c1)C[C@H]1CCCC[C@H]1N3CCNC2` (relative stereo) (as salt: HCl) [Example 2, cis isomer, (Cis)-1,2,3,4,8a,9,10,11,12,12a,-decahydro-8H-[1,4]diazepino[6,7,1-de]acridine]: 150 to 155 °C.
Turning to `c1cc2c3c(c1)CC1CCCC1N3CCNC2` (stereo not drawn) (as salt: HCl) [Example 1, trans isomer, Trans-1,2,3,4,8,8a,9,10,11,11a-decahydro-cyclopenta[b][1,4]diazapino[6,7,1-ij]quinoline], the melting point is 190 °C (dec.).
Compound `c1cc2c3c(c1)C[C@H]1CCCC[C@H]1N3CCNC2` (relative stereo) [Example 2, cis isomer, (Cis)-1,2,3,4,8a,9,10,11,12,12a,-decahydro-8H-[1,4]diazepino[6,7,1-de]acridine] returned a Ki in series [1] of 511 nM.
`c1cc2c3c(c1)C[C@@H]1CCC[C@@H]1N3CCNC2` (relative stereo) [Example 1, cis isomer, Cis 1,2,3,4,8,8a,9,10,11,11a-decahydro-cyclopenta[b][1,4]diazepino[6,7,1-ij]quinoline] yielded an inhibition constant (Ki) in series [1] of 118 nM.

Usually Ki stands for a measure of affinity in units of concentration, obtained from inhibition or displacement. The term melting point denotes the temperature, or range, at which the solid turns liquid. Broadly, the Kd is the free concentration of one partner at which half of the binding sites on the other are occupied at equilibrium, for simple one-to-one binding.
